Experimental data reported in ChEMBL document CHEMBL4627396 (J Med Chem, 2020).
Activity calls are given as the source filed them. No cut-off for these calls is given here.

Legend:
[1] = Toxicity in NSG mouse assessed as adverse effect at 40 mg/kg administered once daily for 21 days; type: organism-based; details: in vivo
[2] = target: T1, Cytochrome P450 1A2 (Homo sapiens, UniProt P05177); experiment: Inhibition of CYP1A2 (unknown origin); type: ADME
T1 sequence (P05177 whole entry): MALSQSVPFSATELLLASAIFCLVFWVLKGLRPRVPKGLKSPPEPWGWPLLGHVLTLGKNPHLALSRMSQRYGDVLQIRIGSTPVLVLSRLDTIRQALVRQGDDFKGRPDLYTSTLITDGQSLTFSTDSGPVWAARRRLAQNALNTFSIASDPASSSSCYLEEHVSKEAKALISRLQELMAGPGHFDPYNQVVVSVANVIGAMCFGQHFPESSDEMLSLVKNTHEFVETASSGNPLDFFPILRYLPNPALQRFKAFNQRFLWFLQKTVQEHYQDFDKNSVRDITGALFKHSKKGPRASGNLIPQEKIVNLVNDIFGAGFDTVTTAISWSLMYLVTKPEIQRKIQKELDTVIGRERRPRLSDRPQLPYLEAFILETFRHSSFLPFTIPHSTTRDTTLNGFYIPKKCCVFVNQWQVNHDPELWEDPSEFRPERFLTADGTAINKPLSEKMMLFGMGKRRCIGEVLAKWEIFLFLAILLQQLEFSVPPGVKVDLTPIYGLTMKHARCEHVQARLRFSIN

[3] = target: Cytochrome P450 2D6 (Homo sapiens, UniProt P10635); experiment: Inhibition of CYP2D6 (unknown origin); type: ADME
[4] = target: T2, Receptor-interacting serine/threonine-protein kinase 4 (Homo sapiens, UniProt P57078)
T2 sequence (P57078 whole entry): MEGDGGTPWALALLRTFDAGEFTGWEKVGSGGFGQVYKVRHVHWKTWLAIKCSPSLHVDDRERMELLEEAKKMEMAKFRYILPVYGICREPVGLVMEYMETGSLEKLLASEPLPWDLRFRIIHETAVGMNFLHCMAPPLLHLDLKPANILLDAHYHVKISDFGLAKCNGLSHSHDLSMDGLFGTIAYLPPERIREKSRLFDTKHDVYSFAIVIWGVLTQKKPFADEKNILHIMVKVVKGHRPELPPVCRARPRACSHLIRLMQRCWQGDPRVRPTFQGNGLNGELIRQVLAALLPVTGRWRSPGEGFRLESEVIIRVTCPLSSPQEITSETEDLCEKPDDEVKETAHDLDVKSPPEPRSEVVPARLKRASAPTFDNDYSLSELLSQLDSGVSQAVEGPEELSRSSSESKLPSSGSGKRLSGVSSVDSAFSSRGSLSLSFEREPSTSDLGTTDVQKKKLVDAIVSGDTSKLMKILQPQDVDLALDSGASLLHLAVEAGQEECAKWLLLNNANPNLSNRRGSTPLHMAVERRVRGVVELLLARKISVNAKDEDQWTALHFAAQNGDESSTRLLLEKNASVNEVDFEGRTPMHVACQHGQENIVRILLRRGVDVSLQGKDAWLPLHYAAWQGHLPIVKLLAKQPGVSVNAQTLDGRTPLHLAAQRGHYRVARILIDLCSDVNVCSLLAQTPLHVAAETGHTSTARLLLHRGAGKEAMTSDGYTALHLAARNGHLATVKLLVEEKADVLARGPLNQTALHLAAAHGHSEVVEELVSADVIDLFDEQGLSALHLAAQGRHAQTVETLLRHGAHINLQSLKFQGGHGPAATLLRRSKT

[5] = target: T3, Dual specificity mitogen-activated protein kinase kinase 5 (Homo sapiens, UniProt Q13163)
T3 sequence (Q13163 whole entry): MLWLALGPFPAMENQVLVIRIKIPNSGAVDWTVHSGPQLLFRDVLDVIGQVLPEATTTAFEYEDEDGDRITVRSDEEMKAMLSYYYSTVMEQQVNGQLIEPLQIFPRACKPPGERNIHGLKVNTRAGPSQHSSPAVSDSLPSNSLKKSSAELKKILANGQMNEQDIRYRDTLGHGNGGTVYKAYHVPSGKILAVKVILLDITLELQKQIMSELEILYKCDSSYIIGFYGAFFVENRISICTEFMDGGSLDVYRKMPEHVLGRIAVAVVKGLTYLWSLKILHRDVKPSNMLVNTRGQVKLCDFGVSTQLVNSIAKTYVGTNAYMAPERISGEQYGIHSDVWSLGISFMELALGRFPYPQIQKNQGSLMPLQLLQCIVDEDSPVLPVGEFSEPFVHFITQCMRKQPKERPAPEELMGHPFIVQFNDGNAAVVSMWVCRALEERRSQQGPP

[6] = Drug metabolism in human hepatocytes assessed per million cells; type: ADME, cell-based, Hepatocyte
[7] = in vivo; details: Crl:CD Sprague-Dawley, rat, iv, 1 mg/kg
[8] = Drug metabolism in mouse microsomes; type: ADME, Microsome; details: read-out: Drug metabolism
[9] = target: Cytochrome P450 3A4 (Homo sapiens, UniProt P08684); experiment: Inhibition of CYP3A4 (unknown origin); type: ADME
[10] = target: Mitogen-activated protein kinase kinase kinase 11 (Homo sapiens, UniProt Q16584)
[11] = Drug metabolism in rat microsomes; type: ADME, Microsome; details: read-out: Drug metabolism
[12] = target: Phosphatidylinositol 4-phosphate 5-kinase type-1 gamma (Homo sapiens, UniProt O60331)
[13] = tested on: Mus musculus; experiment: Antidiabetic activity in diet induced obese C57Bl/6J mouse model assessed as reduction in plasma insulin level at 25 to 50 mg/kg, po administered 4 hrs prior to glucose stimulation and measured after 10 to 90 mins by OGTT; type: functional, organism-based
[14] = Toxicity in diet induced obese C57Bl/6J mouse model assessed as bloating of gastrointestinal tract at 50 mg/kg, po administered twice daily for 14 days; type: organism-based; details: in vivo
[15] = Drug metabolism in rat plasma assessed as acetylation; type: ADME, cell-free
[16] = Drug metabolism in rat plasma assessed as amide hydrolysis; type: ADME, cell-free
[17] = Drug metabolism in human microsomes; type: ADME, Microsome; details: read-out: Drug metabolism
[18] = Drug excretion in Crl:CD Sprague-Dawley rat urine; type: ADME; details: in vivo
[19] = tested on: Mus musculus; experiment: Antidiabetic activity in diet induced obese C57Bl/6J mouse model assessed as reduction in blood glucose level at 25 to 50 mg/kg, po administered 4 hrs prior to glucose stimulation and measured after 10 to 90 mins by OGTT; type: functional, organism-based
[20] = tested on: Mus musculus; experiment: Antidiabetic activity in diet induced obese C57Bl/6J mouse model assessed as reduction in baseline blood glucose level at 25 mg/kg, po administered twice daily for 14 days followed by glucose challenge at 4 hrs post last dose and measured after 10 to 90 mins by OGTT; type: functional, organism-based
[21] = tested on: Mus musculus; experiment: Antidiabetic activity in diet induced obese C57Bl/6J mouse model assessed as reduction in plasma insulin level at 25 mg/kg, po administered twice daily for 14 days followed by glucose challenge at 4 hrs post last dose and measured after 10 to 90 mins by OGTT; type: functional, organism-based
[22] = Drug metabolism in rat hepatocytes assessed per million cells; type: ADME, cell-based, Hepatocyte
[23] = Drug metabolism in rat plasma assessed as oxidation; type: ADME, cell-free
[24] = tested on: Mus musculus; experiment: Antidiabetic activity in diet induced obese C57Bl/6J mouse model assessed as reduction in peak blood glucose level at 25 mg/kg, po administered twice daily for 14 days followed by glucose challenge at 4 hrs post last dose and measured after 10 to 90 mins by OGTT; type: functional, organism-based
[25] = tested on: Mus musculus; experiment: Antidiabetic activity in diet induced obese C57Bl/6J mouse model assessed as change in blood glucose AUC at 25 mg/kg, po administered twice daily for 14 days followed by glucose challenge at 4 hrs post last dose and measured after 10 to 90 mins by OGTT; type: functional, organism-based
[26] = target: Calcium/calmodulin-dependent protein kinase type 1D (Homo sapiens) (UniProt Q8IU85)
[27] = target: T4, Tyrosine-protein kinase SYK (Homo sapiens, UniProt P43405)
[28] = target: T5, Calcium/calmodulin-dependent protein kinase type IV (Homo sapiens) (UniProt Q16566); details: 10 uM
T5 sequence (whole entry): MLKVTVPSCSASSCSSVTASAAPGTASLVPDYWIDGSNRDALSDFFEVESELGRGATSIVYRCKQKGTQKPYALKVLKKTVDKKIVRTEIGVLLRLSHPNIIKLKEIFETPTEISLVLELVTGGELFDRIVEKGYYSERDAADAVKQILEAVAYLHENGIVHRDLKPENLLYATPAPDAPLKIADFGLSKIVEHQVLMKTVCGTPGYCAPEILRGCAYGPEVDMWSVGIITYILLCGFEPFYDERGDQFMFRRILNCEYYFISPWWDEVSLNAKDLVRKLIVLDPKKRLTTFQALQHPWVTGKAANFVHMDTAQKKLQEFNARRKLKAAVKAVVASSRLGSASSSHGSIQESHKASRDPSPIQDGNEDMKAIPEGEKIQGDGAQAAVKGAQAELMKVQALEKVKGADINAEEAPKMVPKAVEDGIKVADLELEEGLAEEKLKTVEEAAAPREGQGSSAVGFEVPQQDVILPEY

[29] = target: T4, Tyrosine-protein kinase SYK; details: 10 uM
[30] = target: Death-associated protein kinase 3 (Homo sapiens) (UniProt O43293); details: 10 uM
[31] = target: Glycogen synthase kinase-3 beta (Homo sapiens) (UniProt P49841); details: 10 uM
[32] = target: T6, Serine/threonine-protein kinase DCLK1 (Homo sapiens) (UniProt O15075); details: 10 uM
T6 sequence (whole entry): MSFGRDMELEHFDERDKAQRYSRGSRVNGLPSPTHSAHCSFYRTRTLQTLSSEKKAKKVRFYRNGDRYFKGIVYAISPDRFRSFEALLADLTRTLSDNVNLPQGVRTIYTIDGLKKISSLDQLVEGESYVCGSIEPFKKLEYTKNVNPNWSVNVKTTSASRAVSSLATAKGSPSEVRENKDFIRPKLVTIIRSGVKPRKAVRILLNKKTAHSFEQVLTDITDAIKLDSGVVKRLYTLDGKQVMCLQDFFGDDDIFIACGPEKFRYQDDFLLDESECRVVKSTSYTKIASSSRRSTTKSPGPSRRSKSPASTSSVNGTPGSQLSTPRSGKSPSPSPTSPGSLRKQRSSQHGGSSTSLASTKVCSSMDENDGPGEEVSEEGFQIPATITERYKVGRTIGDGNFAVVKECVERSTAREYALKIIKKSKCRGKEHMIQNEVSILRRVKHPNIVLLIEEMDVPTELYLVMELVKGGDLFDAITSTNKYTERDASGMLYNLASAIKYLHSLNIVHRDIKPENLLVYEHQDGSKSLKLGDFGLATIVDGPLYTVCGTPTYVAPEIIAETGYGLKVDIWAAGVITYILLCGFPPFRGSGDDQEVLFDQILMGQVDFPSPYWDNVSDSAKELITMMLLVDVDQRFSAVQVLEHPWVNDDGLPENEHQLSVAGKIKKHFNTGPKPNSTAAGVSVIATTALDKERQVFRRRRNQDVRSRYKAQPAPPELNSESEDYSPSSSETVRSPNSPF

Sequence of Cytochrome P450 2D6 (P10635 whole entry): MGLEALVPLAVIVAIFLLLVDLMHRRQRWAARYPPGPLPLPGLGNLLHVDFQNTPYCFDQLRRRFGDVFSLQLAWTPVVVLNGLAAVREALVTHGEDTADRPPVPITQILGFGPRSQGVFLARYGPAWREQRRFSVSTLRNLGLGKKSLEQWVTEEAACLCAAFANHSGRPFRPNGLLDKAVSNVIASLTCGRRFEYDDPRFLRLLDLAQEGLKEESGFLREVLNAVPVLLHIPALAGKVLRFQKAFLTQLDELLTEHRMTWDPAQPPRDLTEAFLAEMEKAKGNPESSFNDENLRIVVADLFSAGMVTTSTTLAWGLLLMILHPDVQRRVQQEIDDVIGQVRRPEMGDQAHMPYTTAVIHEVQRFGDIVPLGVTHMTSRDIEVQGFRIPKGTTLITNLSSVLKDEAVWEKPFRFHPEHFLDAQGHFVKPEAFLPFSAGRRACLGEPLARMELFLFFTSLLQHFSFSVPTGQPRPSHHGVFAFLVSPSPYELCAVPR
Sequence of Cytochrome P450 3A4 (P08684 whole entry): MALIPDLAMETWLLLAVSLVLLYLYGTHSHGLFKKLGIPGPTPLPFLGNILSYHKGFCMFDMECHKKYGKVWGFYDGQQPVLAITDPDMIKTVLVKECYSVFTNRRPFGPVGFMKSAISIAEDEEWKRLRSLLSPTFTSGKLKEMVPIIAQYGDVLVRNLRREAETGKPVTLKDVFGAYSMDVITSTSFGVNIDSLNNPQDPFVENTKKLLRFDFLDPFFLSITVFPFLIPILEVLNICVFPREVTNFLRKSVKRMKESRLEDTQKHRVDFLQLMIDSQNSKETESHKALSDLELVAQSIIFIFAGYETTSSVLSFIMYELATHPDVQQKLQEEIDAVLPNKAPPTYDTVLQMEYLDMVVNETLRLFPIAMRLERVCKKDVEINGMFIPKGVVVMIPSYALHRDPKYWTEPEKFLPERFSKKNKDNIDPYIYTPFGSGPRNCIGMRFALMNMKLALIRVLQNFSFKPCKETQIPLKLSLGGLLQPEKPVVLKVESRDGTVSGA
Sequence of Calcium/calmodulin-dependent protein kinase type 1D (Homo sapiens) (Q8IU85 whole entry, looked up): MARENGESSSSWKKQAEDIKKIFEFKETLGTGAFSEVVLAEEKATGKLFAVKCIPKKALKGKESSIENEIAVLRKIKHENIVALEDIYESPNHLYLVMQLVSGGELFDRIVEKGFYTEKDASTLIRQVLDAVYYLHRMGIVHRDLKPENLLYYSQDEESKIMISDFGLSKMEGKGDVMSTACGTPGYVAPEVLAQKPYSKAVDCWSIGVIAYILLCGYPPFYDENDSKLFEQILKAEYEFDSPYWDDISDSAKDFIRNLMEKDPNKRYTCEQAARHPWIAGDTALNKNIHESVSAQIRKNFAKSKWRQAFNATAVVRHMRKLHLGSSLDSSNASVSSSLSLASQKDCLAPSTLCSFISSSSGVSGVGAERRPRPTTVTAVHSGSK
Sequence of Phosphatidylinositol 4-phosphate 5-kinase type-1 gamma (O60331 whole entry): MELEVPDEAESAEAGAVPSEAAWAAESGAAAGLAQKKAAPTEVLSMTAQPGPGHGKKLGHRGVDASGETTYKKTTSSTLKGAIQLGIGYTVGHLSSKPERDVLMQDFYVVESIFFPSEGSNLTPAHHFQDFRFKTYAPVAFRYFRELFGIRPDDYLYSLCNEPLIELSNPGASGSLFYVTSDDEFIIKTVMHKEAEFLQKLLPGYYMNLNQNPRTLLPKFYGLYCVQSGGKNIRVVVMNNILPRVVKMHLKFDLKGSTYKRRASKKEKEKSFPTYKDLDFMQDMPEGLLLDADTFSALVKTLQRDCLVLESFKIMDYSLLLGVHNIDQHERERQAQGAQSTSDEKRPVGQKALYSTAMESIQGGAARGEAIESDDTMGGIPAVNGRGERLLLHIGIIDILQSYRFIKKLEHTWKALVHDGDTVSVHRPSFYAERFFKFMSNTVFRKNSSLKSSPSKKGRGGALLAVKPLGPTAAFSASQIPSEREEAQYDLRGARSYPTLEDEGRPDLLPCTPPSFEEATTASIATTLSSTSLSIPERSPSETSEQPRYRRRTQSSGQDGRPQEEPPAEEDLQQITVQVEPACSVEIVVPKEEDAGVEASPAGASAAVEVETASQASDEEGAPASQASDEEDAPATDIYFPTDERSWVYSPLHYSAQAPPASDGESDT
Sequence of Death-associated protein kinase 3 (Homo sapiens) (O43293 whole entry, looked up): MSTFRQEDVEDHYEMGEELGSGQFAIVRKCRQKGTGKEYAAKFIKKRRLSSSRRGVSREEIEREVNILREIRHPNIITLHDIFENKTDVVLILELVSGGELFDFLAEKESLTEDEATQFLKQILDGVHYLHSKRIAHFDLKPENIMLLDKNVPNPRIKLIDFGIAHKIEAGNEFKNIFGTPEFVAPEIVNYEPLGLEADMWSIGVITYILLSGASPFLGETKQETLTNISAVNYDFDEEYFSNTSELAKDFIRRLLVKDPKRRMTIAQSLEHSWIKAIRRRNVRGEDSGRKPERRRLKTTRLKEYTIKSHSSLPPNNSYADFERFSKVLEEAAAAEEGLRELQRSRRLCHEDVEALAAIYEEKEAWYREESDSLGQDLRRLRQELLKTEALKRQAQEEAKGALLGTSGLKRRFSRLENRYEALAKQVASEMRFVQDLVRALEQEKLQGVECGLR
Sequence of Glycogen synthase kinase-3 beta (Homo sapiens) (P49841 whole entry, looked up): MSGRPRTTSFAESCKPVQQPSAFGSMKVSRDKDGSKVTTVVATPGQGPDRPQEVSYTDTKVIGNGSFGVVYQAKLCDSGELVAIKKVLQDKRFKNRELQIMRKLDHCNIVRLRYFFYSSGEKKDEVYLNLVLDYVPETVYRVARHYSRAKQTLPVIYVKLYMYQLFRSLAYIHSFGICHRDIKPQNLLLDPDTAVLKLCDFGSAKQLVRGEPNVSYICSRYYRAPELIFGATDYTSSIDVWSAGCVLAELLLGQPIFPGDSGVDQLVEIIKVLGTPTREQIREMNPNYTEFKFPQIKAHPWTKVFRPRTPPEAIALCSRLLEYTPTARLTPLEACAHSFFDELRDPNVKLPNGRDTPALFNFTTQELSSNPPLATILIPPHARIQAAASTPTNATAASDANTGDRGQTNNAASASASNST
Sequence of Mitogen-activated protein kinase kinase kinase 11 (Q16584 whole entry): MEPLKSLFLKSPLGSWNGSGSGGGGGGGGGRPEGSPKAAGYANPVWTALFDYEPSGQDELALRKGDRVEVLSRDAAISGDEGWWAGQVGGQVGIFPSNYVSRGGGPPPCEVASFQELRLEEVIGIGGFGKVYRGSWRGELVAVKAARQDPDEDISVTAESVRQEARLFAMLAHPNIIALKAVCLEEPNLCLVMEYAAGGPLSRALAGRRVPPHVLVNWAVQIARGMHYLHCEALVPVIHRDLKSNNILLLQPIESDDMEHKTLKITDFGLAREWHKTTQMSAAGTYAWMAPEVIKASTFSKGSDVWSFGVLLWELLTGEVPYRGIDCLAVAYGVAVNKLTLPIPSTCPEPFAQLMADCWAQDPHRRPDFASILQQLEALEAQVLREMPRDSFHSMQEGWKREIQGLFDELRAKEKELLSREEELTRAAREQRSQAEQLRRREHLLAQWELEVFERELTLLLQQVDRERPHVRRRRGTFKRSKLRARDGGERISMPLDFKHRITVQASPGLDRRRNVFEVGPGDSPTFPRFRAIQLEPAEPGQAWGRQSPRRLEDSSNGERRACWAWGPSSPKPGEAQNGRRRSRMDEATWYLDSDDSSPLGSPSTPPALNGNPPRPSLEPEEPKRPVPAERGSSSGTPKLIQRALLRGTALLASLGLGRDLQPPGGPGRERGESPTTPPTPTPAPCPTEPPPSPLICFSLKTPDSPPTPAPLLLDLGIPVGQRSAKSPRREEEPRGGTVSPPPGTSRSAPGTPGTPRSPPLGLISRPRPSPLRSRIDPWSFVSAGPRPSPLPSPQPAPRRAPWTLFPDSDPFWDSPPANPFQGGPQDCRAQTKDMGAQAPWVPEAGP

Structure (SMILES): CC(C)c1cc(Nc2nc(N3CCC[C@H](N)C3)ncc2C(N)=O)cc(C(C)C)n1
- Activity [1]: Non-Toxic
- IC50 [2]: > 20 µM
- IC50 [3]: > 20 µM
- IC50 [4]: 5.69 µM
- IC50 [5]: 0.025 µM
- Drug metabolism [6]: 19 µL/min
- Vd [7]: 18.5 L/kg
- microsomal CLint [8]: 6 µL/min/mg
- IC50 [9]: > 20 µM
- IC50 [10]: 2.75 µM
- microsomal CLint [11]: 3 µL/min/mg
- IC50 [12]: 11.2 µM

Structure (SMILES): CC(C)(C#N)c1cc(Nc2nc(N3CCC[C@H](N)C3)ncc2C(N)=O)cc(C(C)(C)C#N)c1
- Activity [13]: Active
- Activity [14]: Toxic
- Drug metabolism [15]: Metabolite_Detected
- IC50 [2]: > 20 µM
- Drug metabolism [16]: Metabolite_Detected
- IC50 [3]: > 20 µM
- microsomal CLint [17]: 13 µL/min/mg
- Drug excretion [18]: Metabolite_Detected
- Activity [19]: Active
- Activity [20]: Active
- Activity [21]: Active
- Drug metabolism [22]: 11 µL/min
- Drug metabolism [23]: Metabolite_Detected
- IC50 [9]: > 20 µM
- Activity [24]: Active
- microsomal CLint [11]: < 1 µL/min/mg
- Activity [25]: inactive

Structure (SMILES): NCCNc1ncc(C(N)=O)c(Nc2cccc(C(F)(F)F)c2)n1
- ΔTm [26]: 5.44 °C
- IC50 [27]: 0.007 µM
- ΔTm [28]: 1.34 °C
- ΔTm [29]: 7.51 °C
- ΔTm [30]: 4.05 °C
- ΔTm [31]: 3.4 °C
- ΔTm [32]: 0.11 °C
